The numbers were not newly measured in paper PMC4291083, “Ex Vivo Characterization of a Novel Iodine-123-Labelled Aminomethylchroman as a Potential Agonist Ligand for SPECT Imaging of Dopamine D2/3 Receptors” (International Journal of Molecular Imaging, 2014), which cites them from elsewhere.

Broadly, the Ki is the dissociation constant of the complex between target and ligand, obtained from inhibition or displacement.

Set-up in all cases: method as in PMID 24325578
In data set [1] the test system is dopamine D4 receptor. The settings on record: in vitro; cited from earlier work.
Data set [2] addresses D2 high. Particulars: in vitro; cited from earlier work.
Data set [3] has as its system D2 receptor. The settings on record: agonism D2 receptor, cited from earlier work.
Data set [4] concerns the target D2 low. The settings on record: in vitro; cited from earlier work.
Data set [5] has as its target D1 receptor. Particulars: in vitro; cited from earlier work.

Turning to “(R) N-[7-hydroxychroman-2-yl]-methyl 4-iodobenzyl amine [compound 1]”, the “binding affinity to dopamine D4 receptor” value in data set [1] is recorded as “binds with high-affinity”. The inhibitory constant (Ki) is 0.00379 µM in data set [2], 0.0518 µM in data set [4] and 8.67 µM in data set [5]. Further, in data set [3] (cAMP), the Emax is on record as 86 % of dopamine. The “pEC50 cAMP” value in data set [3] is given as 9.2 ± 0.4.
